Measured values taken from EP4094756A1 (priority 2021, dated 2022).

Test system: SARS-CoV-2 VOC (Alpha, Beta, and Delta)
Assay: SARS-CoV2 VOC testing in Vero cells, standard plaque assay
Assay type: cell-based

Cc1cc(O)c2c(=O)c3c(O)cc(O)c4c5c(O)cc(O)c6c(=O)c7c(O)cc(C)c8c1c2c(c34)c(c78)c65 [Hypericin, hypericin]
drop of virus titers in comparison to DMSO-treated controls: 3-5 log steps
